Laboratory results reported in EP3915546A1, “USE OF ACID AS SOLVENT FOR PRECIPITATIONS” (leon-nanodrugs GmbH, priority 2020, dated 2021).

How the values were obtained:
Type in all cases: physicochemical
[1] = Thermodynamic saturation solubility in solvents and their mixtures with water (24 h stirring at room temperature, HPLC)
Procedure: Zur Bestimmung der thermodynamischen Sättigungslöslichkeit einer Substanz in einem bestimmten Lösungsmittel wird zunächst zur Orientierung eine Literaturrecherche durchgeführt, um einen ersten groben Richtwert zu erhalten. Danach wurden 500 mg (und gegebenenfalls mehr) des Wirkstoffpulvers eingewogen und in 5 ml des Lösungsmittels unter leichtem Rühren suspendiert. Falls das Pulver vollständig in Lösung ging, wurde zusätzlich 100 mg (oder iterative nochmalige Zugabe der initial eingewogenen Menge) Feststoff zugesetzt. Dies wurde wiederholt, bis sich ein Bodensatz bildete.
Die feststoff-enthaltende Mischung wurde verschlossen und 24 Stunden bei Raumtemperatur gerührt. Nach 24 Stunden wurde der Überstand von Bodensatz getrennt, zentrifugiert (Filtration ist nahezu unmöglich) und zur Quantifizierung mit der mobilen Phase der HPLC-Methode verdünnt.
Ein weiterer Teil des zentrifugierten Überstandes wurde unter Rühren mit demineralisiertem Wasser im Volumenverhältnis von 1:1 gemischt. Dazu wurde Wasser vorgelegt und die Wirkstofflösung unter Rühren oder Schütteln zu pipettiert. Dabei fiel Wirkstoff aus. Der Überstand wurde nach 3 Stunden von Bodensatz getrennt, zentrifugiert und zur Quantifizierung mittels HPLC verdünnt. Der Verdünnungsschritt wird grob abgeschätzt, Zielkonzentration sind z. B. 100 µg/mL je nach Wirkstoff, um im Linearitätsbereich des Detektors zu bleiben. Liegt die Konzentration zu hoch oder zu niedrig wird der Verdünnungsschritt angepasst. Die Verdünnung erfolgte mit einem zu mobilen Phase kompatiblen Lösungsmittelgemisch (z. B. Methanol vorlegen, Probe zugeben, Wasser zugeben). Falls die Substanz in diesem Lösungsmittelgemisch in dieser Verdünnung nicht löslich war, wurde die Verdünnung mit reinem organischem Lösungsmittel wiederholt.
Dieses Vorgehen wurde für die Mischungsverhältnisse von 1:2, 1:3 und 1:10 wiederholt.

[2] = Microscopy of the suspension after precipitation in a MikroJetReaktor (particle growth)
Procedure: • Figur 1: Mikroskopische Aufnahme von ENZ, entstanden durch Mischen von 1 Teil einer Lösung von 100 mg/ml ENZ in Aceton mit 1 Teil Wasser. Maßstab: Der Balken im Bild entspricht 20 µm. (a) Aufnahme unmittelbar nach Fällung. (b) Aufnahme ca. 12 Stunden nach der Fällung. • Figur 2: Mikroskopische Aufnahme von ENZ-Partikeln. Entstanden durch Mischen von 1 Teil einer Lösung von 100 mg/ml ENZ in Eisessig mit 10 Teilen Wasser. Maßstab: Der Balken im Bild entspricht 20 µm. (a) Aufnahme ca. 1 Stunde nach Fällung. (b) Aufnahme ca. 18 Stunden nach der Fällung.
100 mg Enzalutamide werden unter Rühren in 1 ml Aceton bei Raumtemperatur gelöst (100 mg/ml). Diese Lösung wird in einem MikroJetReaktor mit Wasser gemischt in einem Mischungsverhältnis von 1 Teil Enzalutamide in Aceton zu 1,01 Teilen Wasser. Die erhaltene Suspension wird mikroskopiert (Figur. 1).
100 mg Enzalutamide werden unter Rühren in 1 ml Eisessig bei Raumtemperatur gelöst (100 mg/ml). Diese Lösung wird in einem MikroJetReaktor mit Wasser gemischt in einem Mischungsverhältnis von 1 Teil Enzalutamide in Eisessig zu 10 Teilen Wasser. Die erhaltene Suspension wird mikroskopiert (Figur 3).

[3] = Precipitation with water: total concentration in suspension and share dissolved in the mother liquor
Procedure: Für die pharmazeutische Weiterverarbeitung der Suspension zu einem Arzneimittel ist es wünschenswert, eine Wirkstoffkonzentration von mehr als 50 mg/ml zu erzeugen. Tabelle 4: Erzeugung von ENZ Partikeln durch Fällung. Gesamtkonzentration an ENZ in der Suspension (mg/ml) und der Anteil (%) des in der Mutterlauge gelösten ENZ
Wird eine Lösung von 100 mg/ml Enzalutamide in Aceton mit gleichem Teil an Wasser gemischt, so fällt ein Großteil des Enzalutamides aus, da dessen Sättigungskonzentration überschritten wird. Die resultierende Mischung enthält 50% Aceton und eine Gesamtmenge von 50 mg/ml Enzalutamide. Davon werden 7,87 mg/ml in der Mutterlauge gelöst vorliegen (Tabelle 3, Nr. 2, Aceton); dies entspricht 15,7 % der Gesamtmenge von 50 mg/ml (Tabelle 4, Nr. 2, Aceton). Diese gelöste Menge an Enzalutamide (15,7 % der Gesamtmenge) ist zu hoch und führt zu einem unerwünschten und schnellen Wachstum der Partikel.

[4] = Aceton, Lösungsmittel-Gehalt der Mischung 100 %
[5] = Aceton/Wasser, Lösungsmittel-Gehalt der Mischung 9,09 %
[6] = Aceton/Wasser, Lösungsmittel-Gehalt der Mischung 25 %
[7] = Aceton/Wasser, Lösungsmittel-Gehalt der Mischung 33,3 %
[8] = Aceton/Wasser, Lösungsmittel-Gehalt der Mischung 50 %
[9] = Ameisensäure/Wasser, Lösungsmittel-Gehalt der Mischung 9,09 %
[10] = Eisessig, Lösungsmittel-Gehalt der Mischung 100 %
[11] = Eisessig/Wasser, Lösungsmittel-Gehalt der Mischung 9,09 %
[12] = Eisessig/Wasser, Lösungsmittel-Gehalt der Mischung 25 %
[13] = Eisessig/Wasser, Lösungsmittel-Gehalt der Mischung 33,3 %
[14] = Eisessig/Wasser, Lösungsmittel-Gehalt der Mischung 50 %
[15] = Ethanol, Lösungsmittel-Gehalt der Mischung 100 %
[16] = Ethanol/Wasser, Lösungsmittel-Gehalt der Mischung 9,09 %
[17] = Ethanol/Wasser, Lösungsmittel-Gehalt der Mischung 25 %
[18] = Ethanol/Wasser, Lösungsmittel-Gehalt der Mischung 33,3 %
[19] = Ethanol/Wasser, Lösungsmittel-Gehalt der Mischung 50 %
[20] = THF, Lösungsmittel-Gehalt der Mischung 100 %
[21] = THF/Wasser, Lösungsmittel-Gehalt der Mischung 9,09 %
[22] = THF/Wasser, Lösungsmittel-Gehalt der Mischung 25 %
[23] = THF/Wasser, Lösungsmittel-Gehalt der Mischung 33,3 %
[24] = THF/Wasser, Lösungsmittel-Gehalt der Mischung 50 %

## CCC(C)n1ncn(-c2ccc(N3CCN(c4ccc(OCC5COC(Cn6cncn6)(c6ccc(Cl)cc6Cl)O5)cc4)CC3)cc2)c1=O (centres unmarked) [ITZ, Itraconazol]
[1]; [4]
  Sättigungslöslichkeit von ITZ: 2,500 mg/ml
  Sättigungslöslichkeit von ITZ relativ zu der Sättigungslöslichkeit im Lösungsmittel: 100%
[1]; [5]
  Sättigungslöslichkeit von ITZ: 0,0001 mg/ml
  Sättigungslöslichkeit von ITZ relativ zu der Sättigungslöslichkeit im Lösungsmittel: 0,004%
[1]; [6]
  Sättigungslöslichkeit von ITZ: 0,002 mg/ml
  Sättigungslöslichkeit von ITZ relativ zu der Sättigungslöslichkeit im Lösungsmittel: 0,09%
[1]; [7]
  Sättigungslöslichkeit von ITZ: 0,008 mg/ml
  Sättigungslöslichkeit von ITZ relativ zu der Sättigungslöslichkeit im Lösungsmittel: 0,34%
[1]; [8]
  Sättigungslöslichkeit von ITZ: 0,038 mg/ml
  Sättigungslöslichkeit von ITZ relativ zu der Sättigungslöslichkeit im Lösungsmittel: 1,53%
[1]; Ameisensäure, Lösungsmittel-Gehalt der Mischung 100 %
  Sättigungslöslichkeit von ITZ: 435 mg/mL
[1]; [9]
  Sättigungslöslichkeit von ITZ: 0,01 mg/ml
  Sättigungslöslichkeit von ITZ relativ zu der Sättigungslöslichkeit im Lösungsmittel: 0,002%
[1]; [10]
  Sättigungslöslichkeit von ITZ: 157,8 mg/ml
  Sättigungslöslichkeit von ITZ relativ zu der Sättigungslöslichkeit im Lösungsmittel: 100%
[1]; [11]
  Sättigungslöslichkeit von ITZ: 0,028 mg/ml
  Sättigungslöslichkeit von ITZ relativ zu der Sättigungslöslichkeit im Lösungsmittel: 0,02%
[1]; [12]
  Sättigungslöslichkeit von ITZ: 0,009 mg/ml
  Sättigungslöslichkeit von ITZ relativ zu der Sättigungslöslichkeit im Lösungsmittel: 0,01%
[1]; [13]
  Sättigungslöslichkeit von ITZ: 0,210 mg/ml
  Sättigungslöslichkeit von ITZ relativ zu der Sättigungslöslichkeit im Lösungsmittel: 0,13%
[1]; [14]
  Sättigungslöslichkeit von ITZ: 1,455 mg/ml
  Sättigungslöslichkeit von ITZ relativ zu der Sättigungslöslichkeit im Lösungsmittel: 0,92%
[1]; [15]
  Sättigungslöslichkeit von ITZ: 0,289 mg/ml
  Sättigungslöslichkeit von ITZ relativ zu der Sättigungslöslichkeit im Lösungsmittel: 100%
[1]; [16]
  Sättigungslöslichkeit von ITZ: 0,009 mg/ml
  Sättigungslöslichkeit von ITZ relativ zu der Sättigungslöslichkeit im Lösungsmittel: 2,95%
[1]; [17]
  Sättigungslöslichkeit von ITZ: 0,006 mg/ml
  Sättigungslöslichkeit von ITZ relativ zu der Sättigungslöslichkeit im Lösungsmittel: 2,08%
[1]; [18]
  Sättigungslöslichkeit von ITZ: 0,002 mg/ml
  Sättigungslöslichkeit von ITZ relativ zu der Sättigungslöslichkeit im Lösungsmittel: 0,69%
[1]; [19]
  Sättigungslöslichkeit von ITZ: 0,102 mg/ml
  Sättigungslöslichkeit von ITZ relativ zu der Sättigungslöslichkeit im Lösungsmittel: 34,36%
[1]; [20]
  Sättigungslöslichkeit von ITZ: 4,255 mg/ml
  Sättigungslöslichkeit von ITZ relativ zu der Sättigungslöslichkeit im Lösungsmittel: 100%
[1]; [21]
  Sättigungslöslichkeit von ITZ: 0,001 mg/ml
  Sättigungslöslichkeit von ITZ relativ zu der Sättigungslöslichkeit im Lösungsmittel: 0,02%
[1]; [22]
  Sättigungslöslichkeit von ITZ: 0,002 mg/ml
  Sättigungslöslichkeit von ITZ relativ zu der Sättigungslöslichkeit im Lösungsmittel: 0,05%
[1]; [23]
  Sättigungslöslichkeit von ITZ: 0,013 mg/ml
  Sättigungslöslichkeit von ITZ relativ zu der Sättigungslöslichkeit im Lösungsmittel: 0,29%
[1]; [24]
  Sättigungslöslichkeit von ITZ: 0,677 mg/ml
  Sättigungslöslichkeit von ITZ relativ zu der Sättigungslöslichkeit im Lösungsmittel: 15,91%
[1]; in Tetrahydrofuran, Aceton und Ethanol
  Sättigungslöslichkeit von ITZ: < 5 mg/mL
[1]; in den Lösungsmitteln Ameisensäure und Eisessig
  Sättigungslöslichkeit von ITZ: > 150 mg/mL

## CNC(=O)c1ccc(N2C(=S)N(c3ccc(C#N)c(C(F)(F)F)c3)C(=O)C2(C)C)cc1F [ENZ, Enzalutamid]
[2]; 100 mg/ml in Aceton mixed with 1,01 Teilen Wasser in a MikroJetReaktor
  Particles seen by microscopy after precipitation: Mikropartikel, die innerhalb von 12 Stunden zu großen Nadeln wachsen
[2]; 100 mg/ml in Eisessig mixed with 10 Teilen Wasser in a MikroJetReaktor
  Particles seen by microscopy after precipitation: im Vergleich zu Aceton deutlich kleinere Partikel, die in Laufe von 18 Stunden zu Nadeln wachsen
[1]; [4]
  Sättigungslöslichkeit von ENZ: 358 mg/mL
[1]; [6]
  Sättigungslöslichkeit von ENZ: 0,233 mg/ml
[1]; [7]
  Sättigungslöslichkeit von ENZ: 0,537 mg/ml
[1]; [8]
  Sättigungslöslichkeit von ENZ: 7,87 mg/ml
[1]; [10]
  Sättigungslöslichkeit von ENZ: 155,4 mg/ml
[1]; [11]
  Sättigungslöslichkeit von ENZ: 0,086 mg/ml
[1]; [12]
  Sättigungslöslichkeit von ENZ: 0,112 mg/ml
[1]; [13]
  Sättigungslöslichkeit von ENZ: 0,294 mg/ml
[1]; [14]
  Sättigungslöslichkeit von ENZ: 2,044 mg/ml
[1]; Eisessig/Wasser, Lösungsmittel-Gehalt der Mischung 50 %, listed as Enzalutamide
  Sättigungslöslichkeit von ENZ: 2,04 mg/ml
[1]; [20]
  Sättigungslöslichkeit von ENZ: 364 mg/mL
[1]; [22]
  Sättigungslöslichkeit von ENZ: 0,365 mg/ml
[1]; [23]
  Sättigungslöslichkeit von ENZ: 2,68 mg/ml
[1]; [24]
  Sättigungslöslichkeit von ENZ: 16,9 mg/ml
[3]; Aceton, Lösungsmittel-Gehalt der Suspension 100 %, ENZ in Suspension 100 mg/ml
  ENZ in Lösung bei Fällung aus (% der Gesamtmenge in Suspension): 100%
[3]; Eisessig, Lösungsmittel-Gehalt der Suspension 100 %, ENZ in Suspension 100 mg/ml
  ENZ in Lösung bei Fällung aus (% der Gesamtmenge in Suspension): 100%
[3]; Fällung aus Aceton with Wasser, Lösungsmittel-Gehalt der Suspension 25 %, ENZ in Suspension 25 mg/ml
  ENZ in Lösung bei Fällung aus (% der Gesamtmenge in Suspension): 0,93%
[3]; Fällung aus Aceton with Wasser, Lösungsmittel-Gehalt der Suspension 33,3 %, ENZ in Suspension 33,3 mg/ml
  ENZ in Lösung bei Fällung aus (% der Gesamtmenge in Suspension): 1,61%
[3]; Fällung aus Aceton with Wasser, Lösungsmittel-Gehalt der Suspension 50 %, ENZ in Suspension 50 mg/ml
  ENZ in Lösung bei Fällung aus (% der Gesamtmenge in Suspension): 15,7%
[3]; Fällung aus Eisessig with Wasser, Lösungsmittel-Gehalt der Suspension 9,09 %, ENZ in Suspension 9,1 mg/ml
  ENZ in Lösung bei Fällung aus (% der Gesamtmenge in Suspension): 0,95%
[3]; Fällung aus Eisessig with Wasser, Lösungsmittel-Gehalt der Suspension 25 %, ENZ in Suspension 25 mg/ml
  ENZ in Lösung bei Fällung aus (% der Gesamtmenge in Suspension): 0,45%
[3]; Fällung aus Eisessig with Wasser, Lösungsmittel-Gehalt der Suspension 33,3 %, ENZ in Suspension 33,3 mg/ml
  ENZ in Lösung bei Fällung aus (% der Gesamtmenge in Suspension): 0,88%
[3]; Fällung aus Eisessig with Wasser, Lösungsmittel-Gehalt der Suspension 50 %, ENZ in Suspension 50 mg/ml
  ENZ in Lösung bei Fällung aus (% der Gesamtmenge in Suspension): 4,09%
[3]; Fällung aus THF with Wasser, Lösungsmittel-Gehalt der Suspension 25 %, ENZ in Suspension 25 mg/ml
  ENZ in Lösung bei Fällung aus (% der Gesamtmenge in Suspension): 1,46%
[3]; Fällung aus THF with Wasser, Lösungsmittel-Gehalt der Suspension 33,3 %, ENZ in Suspension 33,3 mg/ml
  ENZ in Lösung bei Fällung aus (% der Gesamtmenge in Suspension): 8,04%
[3]; Fällung aus THF with Wasser, Lösungsmittel-Gehalt der Suspension 50 %, ENZ in Suspension 50 mg/ml
  ENZ in Lösung bei Fällung aus (% der Gesamtmenge in Suspension): 33,8%
[3]; THF, Lösungsmittel-Gehalt der Suspension 100 %, ENZ in Suspension 100 mg/ml
  ENZ in Lösung bei Fällung aus (% der Gesamtmenge in Suspension): 100%
